Laboratory results taken from the supplement of paper PMC11061612.

How the values were obtained:
Test in all cases: combination Emax (second highest fraction inhibited in the dose matrix, 72 h); higher = more inhibition; extreme values may be limits of the assay
ACHN (Kidney Carcinoma) = tested on: ACHN (Kidney Carcinoma)
How it was run: (§1)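 Cell lines grown in DMEM/F12 or RPMI with 10% FBS were plated in 1536-well plates and held 24 hours at 37°C, 5% CO2 before 72 hours of exposure to two-drug dose matrices, with DMSO typically at 0.2%. CellTiter-Glo 2.0 luminescence gave viability, which was converted to inhibition. Vehicle wells were set to 0 and blank wells to 1. Combination Emax is the second-highest inhibition in the matrix, and Bliss excess is the observed combination effect minus the expected EA + EB − EA·EB, where EA and EB are the single-agent effects.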

[1] = tested on: NCI-H727 (Other Solid Carcinomas)
How it was run: as §1

[2] = tested on: PANC-04-03 (Pancreatic Carcinoma)
How it was run: as §1

[3] = tested on: EoL-1-cell (Acute Myeloid Leukemia)
How it was run: as §1

[4] = tested on: Ca9-22 (Head and Neck Carcinoma)
How it was run: as §1

[5] = tested on: Caov-4 (Ovarian Carcinoma)
How it was run: as §1

UACC-62 (Melanoma) = tested on: UACC-62 (Melanoma)
How it was run: as §1

YH-13 (Glioblastoma) = tested on: YH-13 (Glioblastoma)
How it was run: as §1

NB69 (Neuroblastoma) = tested on: NB69 (Neuroblastoma)
How it was run: as §1

TGW (Neuroblastoma) = tested on: TGW (Neuroblastoma)
How it was run: as §1

Compound | combination Emax (ACHN (Kidney Carcinoma)) | combination Emax [1] | combination Emax [2] | combination Emax [3] | combination Emax [4] | combination Emax [5] | combination Emax (UACC-62 (Melanoma)) | combination Emax (YH-13 (Glioblastoma)) | combination Emax (NB69 (Neuroblastoma)) | combination Emax (TGW (Neuroblastoma))
CN(CCO)CC[C@H](CSc1ccccc1)Nc1ccc(S(=O)(=O)NC(=O)c2ccc(N3CCC([C@@H](O)c4ccccc4-c4ccc(Cl)cc4)CC3)cc2)cc1S(=O)(=O)C(F)(F)F [AZD4320] + CC(=O)O[C@H]1C(=O)[C@@]2(C)[C@H]([C@H](OC(=O)c3ccccc3)[C@]3(O)C[C@H](OC(=O)[C@H](O)[C@@H](NC(=O)c4ccccc4)c4ccccc4)C(C)=C1C3(C)C)[C@]1(OC(C)=O)CO[C@@H]1C[C@@H]2O [Paclitaxel] (first compound max 1 µM, 7x7, partner max 3 µM) | 0.71 | 0.82 | 0.585 | 1 | 0.997 | 0.795 | 0.808 | 1 | 1 | 1
CN(CCO)CC[C@H](CSc1ccccc1)Nc1ccc(S(=O)(=O)NC(=O)c2ccc(N3CCC([C@@H](O)c4ccccc4-c4ccc(Cl)cc4)CC3)cc2)cc1S(=O)(=O)C(F)(F)F [AZD4320] + Nc1ccn([C@@H]2O[C@H](CO)[C@@H](O)C2(F)F)c(=O)n1 [Gemcitabine] (first compound max 1 µM, 7x7, partner max 0.3 µM) | 0.969 | 0.634 | 0.461 | 1 | 0.927 | 0.685 | 0.72 | 0.852 | 0.997 | 0.934
Cc1cc2ncnn2cc1Nc1ncc2c(n1)n(C1CCOCC1)c(=O)n2C [AZD7648] + COc1cc([C@@H]2c3cc4c(cc3[C@@H](O[C@@H]3O[C@@H]5CO[C@@H](C)O[C@H]5[C@H](O)[C@H]3O)[C@H]3COC(=O)[C@H]23)OCO4)cc(OC)c1O [Etoposide] (first compound max 10 µM, 7x7, partner max 10 µM) | 0.772 | 0.269 | 0.335 | 1 | 0.869 | 0.744 | 0.642 | 0.641 | 0.946 | 0.522
N#Cc1cnc(Nc2cc(NC[C@H]3CNCCO3)c(C(F)(F)F)cn2)cn1 [SRA737] + C=CCn1c(=O)c2cnc(Nc3ccc(N4CCN(C)CC4)cc3)nc2n1-c1cccc(C(C)(C)O)n1 [AZD1775] (first compound max 10 µM, partner max 1 µM) | 0.865 | 0.667 | 0.543 | 1 | 0.957 | 0.854 | 0.304 | 0.812 | 0.969 | 0.922
N#Cc1cnc(Nc2cc(NC[C@H]3CNCCO3)c(C(F)(F)F)cn2)cn1 [SRA737] + CCc1c2c(nc3ccc(O)cc13)-c1cc3c(c(=O)n1C2)COC(=O)[C@]3(O)CC [SN-38] (first compound max 10 µM, 7x7, partner max 0.3 µM) | 0.893 | 0.609 | 0.57 | 0.994 | 0.954 | 0.9 | 0.664 | 0.832 | 0.991 | 0.714
N#Cc1cnc(Nc2cc(NC[C@H]3CNCCO3)c(C(F)(F)F)cn2)cn1 [SRA737] + Nc1ccn([C@@H]2O[C@H](CO)[C@@H](O)C2(F)F)c(=O)n1 [Gemcitabine] (first compound max 10 µM, 7x7, partner max 0.3 µM) | 0.821 | 0.436 | 0.597 | 1 | 0.867 | 0.856 | 0.788 | 0.813 | 0.983 | 0.861
N#Cc1cnc(Nc2cc(NC[C@H]3CNCCO3)c(C(F)(F)F)cn2)cn1 [SRA737] + O=c1[nH]cc(F)c(=O)[nH]1 [5-Fluorouracil] (first compound max 10 µM, 7x7, partner max 20 µM) | 0.781 | 0.428 | 0.474 | 0.994 | 0.606 | 0.749 | 0.098 | 0.542 | 0.805 | 0.693
